According to US4455290A, “Inhibition of fibrin polymerization by a peptide isolated from fibrin Fragment D1” (Research Corporation, priority 1981, dated 1984):
Peptide text beside a SMILES is read from it.

Experiments:
bovine serum albumin = bovine serum albumin (Bos taurus, UniProt P02769); assay: Equilibrium binding of 125-I D1 Peptide, bovine serum albumin
Source text: (§1) Acta 133, 376-379 (1979).

fibrinogen = molecular target: T1, fibrinogen (Homo sapiens, UniProt P02671+P02675+P02679); assay: Equilibrium binding of 125-I D1 Peptide, fibrinogen
T1 construct: purchased Grade L
T1 sequence (P02671 20-644 isoform P02671-2 limits assumed): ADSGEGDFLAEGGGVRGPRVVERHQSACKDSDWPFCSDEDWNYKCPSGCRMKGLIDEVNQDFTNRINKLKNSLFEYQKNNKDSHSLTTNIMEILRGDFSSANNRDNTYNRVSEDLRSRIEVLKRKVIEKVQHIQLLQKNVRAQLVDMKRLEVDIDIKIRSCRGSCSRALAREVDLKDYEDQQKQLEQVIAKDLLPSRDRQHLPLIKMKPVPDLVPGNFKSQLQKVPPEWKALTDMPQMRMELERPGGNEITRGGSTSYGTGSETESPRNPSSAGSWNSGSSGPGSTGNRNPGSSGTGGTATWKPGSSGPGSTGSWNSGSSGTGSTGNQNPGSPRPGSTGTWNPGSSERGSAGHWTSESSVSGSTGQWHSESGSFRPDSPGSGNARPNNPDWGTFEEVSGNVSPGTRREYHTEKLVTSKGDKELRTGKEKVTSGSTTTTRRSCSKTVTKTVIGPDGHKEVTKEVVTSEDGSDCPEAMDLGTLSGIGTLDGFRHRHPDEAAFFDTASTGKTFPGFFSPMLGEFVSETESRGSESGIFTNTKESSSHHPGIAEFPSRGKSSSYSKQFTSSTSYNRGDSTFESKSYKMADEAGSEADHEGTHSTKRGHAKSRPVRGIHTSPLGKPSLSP
T1 sequence (P02675 31-491): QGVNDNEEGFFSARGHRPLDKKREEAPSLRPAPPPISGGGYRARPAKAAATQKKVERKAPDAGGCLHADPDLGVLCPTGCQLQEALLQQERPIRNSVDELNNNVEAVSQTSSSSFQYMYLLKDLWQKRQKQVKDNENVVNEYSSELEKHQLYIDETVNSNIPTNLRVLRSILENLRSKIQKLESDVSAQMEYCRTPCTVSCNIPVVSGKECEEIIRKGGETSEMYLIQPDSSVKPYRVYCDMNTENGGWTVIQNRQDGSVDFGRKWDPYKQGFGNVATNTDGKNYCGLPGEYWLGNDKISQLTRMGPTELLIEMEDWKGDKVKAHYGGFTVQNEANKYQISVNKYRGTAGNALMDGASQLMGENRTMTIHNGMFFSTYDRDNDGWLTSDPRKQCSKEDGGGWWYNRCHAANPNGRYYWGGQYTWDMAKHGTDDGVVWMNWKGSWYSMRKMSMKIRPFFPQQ
T1 sequence (P02679 27-437 isoform P02679-2 limits assumed): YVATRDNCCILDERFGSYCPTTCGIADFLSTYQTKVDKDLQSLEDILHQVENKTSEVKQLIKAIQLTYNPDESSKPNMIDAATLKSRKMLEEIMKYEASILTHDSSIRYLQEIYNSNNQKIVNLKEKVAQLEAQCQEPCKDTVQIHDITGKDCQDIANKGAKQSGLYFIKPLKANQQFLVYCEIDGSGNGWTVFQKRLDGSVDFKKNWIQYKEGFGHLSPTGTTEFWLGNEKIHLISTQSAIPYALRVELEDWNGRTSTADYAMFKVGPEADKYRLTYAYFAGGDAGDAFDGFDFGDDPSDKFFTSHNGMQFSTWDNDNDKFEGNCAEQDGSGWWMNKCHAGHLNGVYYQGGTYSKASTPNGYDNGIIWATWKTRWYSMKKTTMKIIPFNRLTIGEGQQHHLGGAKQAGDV
Source text: as §1

thrombin fibrin monomer = molecular target: T2, thrombin fibrin monomer (Homo sapiens, UniProt P02671+P02675+P02679); assay: Sephadex gel equilibrium binding, thrombin fibrin monomer; details: 15 experiments, mean and standard deviation
T2 construct: Thrombin cleaves the bonds Aα16 Arg-17 Gly and Bβ14 Arg-15 Gly, releasing two molecules of fibrinopeptide A and two molecules of fibrinopeptide B; made in house; host or cells: not recombinant: made from fibrinogen by treatment with thrombin
T2 sequence (P02671 36-629 isoform P02671-2): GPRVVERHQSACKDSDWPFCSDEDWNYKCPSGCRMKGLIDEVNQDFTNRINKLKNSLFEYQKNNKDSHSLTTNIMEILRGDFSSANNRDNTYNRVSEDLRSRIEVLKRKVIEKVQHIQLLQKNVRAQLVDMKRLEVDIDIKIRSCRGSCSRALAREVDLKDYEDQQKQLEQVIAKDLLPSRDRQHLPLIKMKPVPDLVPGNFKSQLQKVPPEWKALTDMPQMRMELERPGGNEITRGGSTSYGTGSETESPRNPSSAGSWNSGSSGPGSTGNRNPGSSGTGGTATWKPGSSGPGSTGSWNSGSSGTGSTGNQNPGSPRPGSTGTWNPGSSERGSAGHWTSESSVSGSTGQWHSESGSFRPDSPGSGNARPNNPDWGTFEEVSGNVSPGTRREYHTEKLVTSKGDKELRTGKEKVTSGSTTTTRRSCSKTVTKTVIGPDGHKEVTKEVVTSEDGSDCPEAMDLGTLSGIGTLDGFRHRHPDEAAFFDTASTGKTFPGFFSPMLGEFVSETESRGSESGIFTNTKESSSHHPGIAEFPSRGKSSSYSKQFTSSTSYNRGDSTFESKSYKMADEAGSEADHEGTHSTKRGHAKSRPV
T2 sequence (P02675 45-491): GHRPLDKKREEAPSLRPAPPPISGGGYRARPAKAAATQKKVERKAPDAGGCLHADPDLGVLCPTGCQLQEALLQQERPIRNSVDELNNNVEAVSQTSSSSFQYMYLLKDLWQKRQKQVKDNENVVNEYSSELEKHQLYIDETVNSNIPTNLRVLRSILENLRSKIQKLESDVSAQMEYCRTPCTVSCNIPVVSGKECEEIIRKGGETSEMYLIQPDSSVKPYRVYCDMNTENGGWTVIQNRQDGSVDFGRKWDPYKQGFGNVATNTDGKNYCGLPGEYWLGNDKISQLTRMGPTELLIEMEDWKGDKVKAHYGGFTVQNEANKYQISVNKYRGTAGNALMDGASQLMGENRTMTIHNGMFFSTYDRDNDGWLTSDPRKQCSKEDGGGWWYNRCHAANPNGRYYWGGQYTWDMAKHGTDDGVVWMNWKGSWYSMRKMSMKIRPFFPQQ
T2 sequence (P02679 27-437 isoform P02679-2): T1 sequence (P02679 27-437 isoform P02679-2 limits assumed)
Procedure: as §1
The purification of NDSK involves incubation of fibrinogen in cyanogen bromide in the presence of 70% formic acid. This treatment may alter the binding sites. Therefore, an attempt was made to reproduce the data using fibrin monomer instead of thrombin-treated NDSK. A major difficulty, the self-polymerization of fibrin monomer, was overcome by using high molar ratios of D1 Peptide to fibrin monomer. However, in this situation the concentration of D1 Peptide could be varied only over a small range of concentrations. D1 Peptide was added to the Sephadex gel equilibrium system and incubated for 10 min., then soluble fibrin monomer was added in a molar excess of D1 Peptide to fibrin monomer of 100-1000 fold. Under these conditions the lag time in the fibrin monomer polymerization was more than 30 min.
In experiments using thrombin fibrin monomer the number of binding sites for D1 Peptide was 1.82±0.26 (15 experiments, mean and standard deviation). For batroxobin fibrin monomer the number of binding sites was 1.91±0.24 (17 experiments, mean and standard deviation).

bovine serum albumin, sequence (P02769 25-607): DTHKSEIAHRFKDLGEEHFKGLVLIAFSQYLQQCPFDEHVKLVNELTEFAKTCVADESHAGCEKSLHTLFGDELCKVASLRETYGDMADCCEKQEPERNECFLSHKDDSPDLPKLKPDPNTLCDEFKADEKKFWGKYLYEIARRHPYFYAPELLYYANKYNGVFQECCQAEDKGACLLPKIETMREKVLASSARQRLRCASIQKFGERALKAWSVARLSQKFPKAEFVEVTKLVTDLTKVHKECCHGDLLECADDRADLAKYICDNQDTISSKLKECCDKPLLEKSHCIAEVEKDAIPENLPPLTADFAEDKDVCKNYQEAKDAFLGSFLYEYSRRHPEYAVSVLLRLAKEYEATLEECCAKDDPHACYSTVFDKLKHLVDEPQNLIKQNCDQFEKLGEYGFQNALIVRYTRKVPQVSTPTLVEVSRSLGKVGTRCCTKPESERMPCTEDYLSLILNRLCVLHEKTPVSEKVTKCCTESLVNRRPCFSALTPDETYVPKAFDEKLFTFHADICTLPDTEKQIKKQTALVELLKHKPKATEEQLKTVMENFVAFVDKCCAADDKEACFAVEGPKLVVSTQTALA

CC[C@H](C)[C@H](NC(=O)[C@H](CCCCN)NC(=O)[C@H](CCSC)NC(=O)[C@@H](NC(=O)[C@@H](NC(=O)[C@H](CCCCN)NC(=O)[C@H](CCCCN)NC(=O)[C@H](CCSC)NC(=O)[C@H](CO)NC(=O)[C@H](Cc1ccc(O)cc1)NC(=O)[C@H](Cc1c[nH]c2ccccc12)NC(=O)[C@H](CCCNC(=N)N)NC(=O)[C@@H](N)[C@@H](C)O)[C@@H](C)O)[C@@H](C)O)C(=O)N[C@H](C(=O)N1CCC[C@H]1C(=O)N[C@@H](Cc1ccccc1)C(=O)N[C@@H](CC(N)=O)C(=O)N[C@@H](CCCNC(=N)N)C(=O)N[C@@H](CC(C)C)C(=O)N[C@H](C(=O)N[C@H](C(=O)NCC(=O)N[C@@H](CCC(=O)O)C(=O)NCC(=O)N[C@@H](CCC(N)=O)C(=O)N[C@@H](CCC(N)=O)C(=O)N[C@@H](Cc1c[nH]cn1)C(=O)N[C@@H](Cc1c[nH]cn1)C(=O)N[C@@H](CC(C)C)C(=O)NCC(=O)NCC(=O)N[C@@H](C)C(=O)N[C@@H](CCCCN)C(=O)N[C@@H](CCC(N)=O)C(=O)N[C@@H](C)C(=O)NCC(=O)N[C@@H](CC(=O)O)C(=O)N[C@H](C(=O)O)C(C)C)[C@@H](C)CC)[C@@H](C)O)[C@@H](C)CC [D1 Peptide] (H-TRWYSMKKTTMKIIPFNRLTIGEGQQHHLGGAKQAGDV-OH)
binding to bovine serum albumin (bovine serum albumin): no measurable binding | binding to fibrinogen (fibrinogen): no measurable binding | number of binding sites for D1 Peptide (thrombin fibrin monomer): 1.82±0.26
